From ChEMBL document CHEMBL3885861, “Open TG-GATES”

Organism: Rattus norvegicus
Experiment: Open TG-GATES - Regimen: Single
Type: toxicity, organism-based, Sprague-Dawley
Parameters: regimen Single, gender Male, age 6 weeks
Conditions: in vivo, po, route gavage; for APTT / Bas / Eos / Fbg / Hb / Ht / Lym / MCH / MCHC / MCV / Mono / Neu / PT / Plat / RBC / Ret / WBC: tissue Blood; for KIDNEY_L / KIDNEY_R / KIDNEY_TOTAL: tissue Kidney; for LIVER: tissue Liver; for A/G / ALP / ALT / AST / BUN / CRE / Ca / Cl / DBIL / GLC / IP / K / LDH / Na / PL / RALB / TBIL / TC / TG / TP / gamma-GTP: tissue Plasma
[1] = 300 mg/kg, 3 h, dose level Middle
[2] = 300 mg/kg, 6 h, dose level Middle
[3] = 300 mg/kg, 9 h, dose level Middle
[4] = 300 mg/kg, 24 h, dose level Middle
[5] = 1000 mg/kg, 3 h, dose level High
[6] = 1000 mg/kg, 6 h, dose level High
[7] = 1000 mg/kg, 9 h, dose level High
[8] = 1000 mg/kg, 24 h, dose level High

## COc1ccc(Cl)cc1C(=O)NCCc1ccc(S(=O)(=O)NC(=O)NC2CCCCC2)cc1 [GLYBURIDE]
[1]
  TERMINAL_BW: 217.4 g
  APTT: 18.5 s
  Bas: 0%
  Eos: 1%
  Fbg: 239 mg/dL
  Hb: 13.3 g/dL
  Ht: 40.4%
  Lym: 72%
  MCH: 20.3 pg
  MCHC: 32.9%
  MCV: 61.7 fL
  Mono: 2.6%
  Neu: 23.8%
  PT: 12.6 s
  Plat: 139.4 x10_4/uL
  RBC: 655.2 x10_4/ul
  Ret: 8.6%
  WBC: 79 x10_2/uL
  KIDNEY_L: 1 g
  KIDNEY_R: 1 g
  KIDNEY_TOTAL: 1.9 g
  LIVER: 9.7 g
  A/G: 1.5
  ALP: 1040 IU/L
  ALT: 46.4 IU/L
  AST: 70.8 IU/L
  BUN: 12.2 mg/dL
  CRE: 0.3 mg/dL
  Ca: 10.8 mg/dL
  Cl: 103.6 meq/L
  DBIL: 0.1 mg/dL
  GLC: 136.4 mg/dL
  IP: 8.7 mg/dL
  K: 3.7 meq/L
  LDH: 143.8 IU/L
  Na: 141.2 meq/L
  PL: 165.8 mg/dL
  RALB: 3.5 g/dL
  TBIL: 0.2 mg/dL
  TC: 82.4 mg/dL
  TG: 88 mg/dL
  TP: 5.7 g/dL
  gamma-GTP: 1 IU/L
[2]
  TERMINAL_BW: 216.4 g
  APTT: 18.7 s
  Bas: 0%
  Eos: 0.8%
  Fbg: 215.8 mg/dL
  Hb: 13.4 g/dL
  Ht: 41%
  Lym: 74.4%
  MCH: 20.7 pg
  MCHC: 32.6%
  MCV: 63.6 fL
  Mono: 3%
  Neu: 21%
  PT: 12.9 s
  Plat: 123.3 x10_4/uL
  RBC: 645.6 x10_4/ul
  Ret: 8.3%
  WBC: 114.4 x10_2/uL
  KIDNEY_L: 1 g
  KIDNEY_R: 0.9 g
  KIDNEY_TOTAL: 1.9 g
  LIVER: 9.6 g
  A/G: 1.6
  ALP: 903.6 IU/L
  ALT: 33.6 IU/L
  AST: 62.2 IU/L
  BUN: 11.8 mg/dL
  CRE: 0.3 mg/dL
  Ca: 10.8 mg/dL
  Cl: 103.6 meq/L
  DBIL: 0.1 mg/dL
  GLC: 161.4 mg/dL
  IP: 9 mg/dL
  K: 3.8 meq/L
  LDH: 134.8 IU/L
  Na: 140.8 meq/L
  PL: 139.2 mg/dL
  RALB: 3.4 g/dL
  TBIL: 0.2 mg/dL
  TC: 72.4 mg/dL
  TG: 69.4 mg/dL
  TP: 5.7 g/dL
  gamma-GTP: 0.8 IU/L
[3]
  TERMINAL_BW: 213.5 g
  APTT: 19.3 s
  Bas: 0%
  Eos: 1%
  Fbg: 234.8 mg/dL
  Hb: 13.4 g/dL
  Ht: 41%
  Lym: 67.8%
  MCH: 20.7 pg
  MCHC: 32.8%
  MCV: 63.2 fL
  Mono: 3%
  Neu: 27.4%
  PT: 12.6 s
  Plat: 119.4 x10_4/uL
  RBC: 648.6 x10_4/ul
  Ret: 7.9%
  WBC: 119.6 x10_2/uL
  KIDNEY_L: 0.9 g
  KIDNEY_R: 1 g
  KIDNEY_TOTAL: 1.9 g
  LIVER: 9.4 g
  A/G: 1.5
  ALP: 926.6 IU/L
  ALT: 35.8 IU/L
  AST: 65.2 IU/L
  BUN: 12.2 mg/dL
  CRE: 0.3 mg/dL
  Ca: 10.6 mg/dL
  Cl: 102.8 meq/L
  DBIL: 0.086 mg/dL
  GLC: 148.4 mg/dL
  IP: 10.2 mg/dL
  K: 3.6 meq/L
  LDH: 133.6 IU/L
  Na: 141.6 meq/L
  PL: 149.2 mg/dL
  RALB: 3.5 g/dL
  TBIL: 0.1 mg/dL
  TC: 76.2 mg/dL
  TG: 58.6 mg/dL
  TP: 5.8 g/dL
  gamma-GTP: 1.8 IU/L
[4]
  TERMINAL_BW: 225 g
  APTT: 18.1 s
  Bas: 0.2%
  Eos: 1%
  Fbg: 220.2 mg/dL
  Hb: 12.9 g/dL
  Ht: 37.9%
  Lym: 82.6%
  MCH: 21.5 pg
  MCHC: 33.9%
  MCV: 63.5 fL
  Mono: 1.8%
  Neu: 14%
  PT: 12.5 s
  Plat: 119.5 x10_4/uL
  RBC: 597.4 x10_4/ul
  Ret: 6.6%
  WBC: 91.9 x10_2/uL
  KIDNEY_L: 1 g
  KIDNEY_R: 1 g
  KIDNEY_TOTAL: 2 g
  LIVER: 10.4 g
  A/G: 1.7
  ALP: 931.4 IU/L
  ALT: 36.2 IU/L
  AST: 65 IU/L
  BUN: 15.8 mg/dL
  CRE: 0.4 mg/dL
  Ca: 10.7 mg/dL
  Cl: 102.4 meq/L
  DBIL: 0.088 mg/dL
  GLC: 202 mg/dL
  IP: 8.3 mg/dL
  K: 3.5 meq/L
  LDH: 182.2 IU/L
  Na: 141.8 meq/L
  PL: 144.4 mg/dL
  RALB: 3.4 g/dL
  TBIL: 0.1 mg/dL
  TC: 79 mg/dL
  TG: 62.6 mg/dL
  TP: 5.4 g/dL
  gamma-GTP: 1.4 IU/L
[5]
  TERMINAL_BW: 216.5 g
  APTT: 18.9 s
  Bas: 0%
  Eos: 1%
  Fbg: 226.2 mg/dL
  Hb: 13.2 g/dL
  Ht: 40.8%
  Lym: 69.2%
  MCH: 20.3 pg
  MCHC: 32.5%
  MCV: 62.6 fL
  Mono: 4%
  Neu: 25%
  PT: 12.6 s
  Plat: 118.1 x10_4/uL
  RBC: 651.8 x10_4/ul
  Ret: 7.9%
  WBC: 75.5 x10_2/uL
  KIDNEY_L: 0.9 g
  KIDNEY_R: 1 g
  KIDNEY_TOTAL: 1.9 g
  LIVER: 9.5 g
  A/G: 1.6
  ALP: 1086.8 IU/L
  ALT: 43.2 IU/L
  AST: 67.2 IU/L
  BUN: 13.2 mg/dL
  CRE: 0.3 mg/dL
  Ca: 10.7 mg/dL
  Cl: 104.4 meq/L
  DBIL: 0.2 mg/dL
  GLC: 125.4 mg/dL
  IP: 7.8 mg/dL
  K: 3.7 meq/L
  LDH: 172.8 IU/L
  Na: 141.8 meq/L
  PL: 178.6 mg/dL
  RALB: 3.4 g/dL
  TBIL: 0.2 mg/dL
  TC: 85.2 mg/dL
  TG: 123 mg/dL
  TP: 5.5 g/dL
  gamma-GTP: 1.8 IU/L
[6]
  TERMINAL_BW: 217.2 g
  APTT: 19.4 s
  Bas: 0%
  Eos: 0.8%
  Fbg: 240.8 mg/dL
  Hb: 13.6 g/dL
  Ht: 41.3%
  Lym: 79.4%
  MCH: 20.7 pg
  MCHC: 32.9%
  MCV: 62.9 fL
  Mono: 2.8%
  Neu: 16.2%
  PT: 12.6 s
  Plat: 128.9 x10_4/uL
  RBC: 657 x10_4/ul
  Ret: 8.2%
  WBC: 91.7 x10_2/uL
  KIDNEY_L: 1 g
  KIDNEY_R: 1 g
  KIDNEY_TOTAL: 1.9 g
  LIVER: 9.7 g
  A/G: 1.6
  ALP: 948.2 IU/L
  ALT: 38.4 IU/L
  AST: 65.4 IU/L
  BUN: 12.4 mg/dL
  CRE: 0.4 mg/dL
  Ca: 10.6 mg/dL
  Cl: 104.2 meq/L
  DBIL: 0.1 mg/dL
  GLC: 155.8 mg/dL
  IP: 8.7 mg/dL
  K: 3.6 meq/L
  LDH: 169.2 IU/L
  Na: 141.8 meq/L
  PL: 154 mg/dL
  RALB: 3.5 g/dL
  TBIL: 0.2 mg/dL
  TC: 82.4 mg/dL
  TG: 86.4 mg/dL
  TP: 5.7 g/dL
  gamma-GTP: 1.6 IU/L
[7]
  TERMINAL_BW: 211.6 g
  APTT: 18.9 s
  Bas: 0%
  Eos: 1%
  Fbg: 228 mg/dL
  Hb: 13.3 g/dL
  Ht: 40.7%
  Lym: 76%
  MCH: 20.4 pg
  MCHC: 32.6%
  MCV: 62.5 fL
  Mono: 2.8%
  Neu: 19.6%
  PT: 12.9 s
  Plat: 115.6 x10_4/uL
  RBC: 651.2 x10_4/ul
  Ret: 7.8%
  WBC: 83.2 x10_2/uL
  KIDNEY_L: 0.9 g
  KIDNEY_R: 0.9 g
  KIDNEY_TOTAL: 1.8 g
  LIVER: 8.7 g
  A/G: 1.7
  ALP: 1050.6 IU/L
  ALT: 35.4 IU/L
  AST: 65.2 IU/L
  BUN: 12.8 mg/dL
  CRE: 0.4 mg/dL
  Ca: 10.7 mg/dL
  Cl: 103.8 meq/L
  DBIL: 0.1 mg/dL
  GLC: 139 mg/dL
  IP: 9.5 mg/dL
  K: 3.5 meq/L
  LDH: 168.2 IU/L
  Na: 142.2 meq/L
  PL: 141 mg/dL
  RALB: 3.5 g/dL
  TBIL: 0.2 mg/dL
  TC: 70.8 mg/dL
  TG: 64.2 mg/dL
  TP: 5.7 g/dL
  gamma-GTP: 0.6 IU/L
[8]
  TERMINAL_BW: 226 g
  APTT: 18.8 s
  Bas: 0.2%
  Eos: 1%
  Fbg: 215.2 mg/dL
  Hb: 13 g/dL
  Ht: 38.3%
  Lym: 77.2%
  MCH: 21.6 pg
  MCHC: 33.9%
  MCV: 63.9 fL
  Mono: 2.8%
  Neu: 18.6%
  PT: 12.8 s
  Plat: 126.5 x10_4/uL
  RBC: 600.8 x10_4/ul
  Ret: 6.8%
  WBC: 87.8 x10_2/uL
  KIDNEY_L: 1 g
  KIDNEY_R: 1 g
  KIDNEY_TOTAL: 1.9 g
  LIVER: 10.1 g
  A/G: 1.7
  ALP: 923.4 IU/L
  ALT: 35.6 IU/L
  AST: 69.2 IU/L
  BUN: 16.2 mg/dL
  CRE: 0.3 mg/dL
  Ca: 10.7 mg/dL
  Cl: 103.4 meq/L
  DBIL: 0.1 mg/dL
  GLC: 195 mg/dL
  IP: 7.7 mg/dL
  K: 3.4 meq/L
  LDH: 218.2 IU/L
  Na: 142.6 meq/L
  PL: 143.6 mg/dL
  RALB: 3.5 g/dL
  TBIL: 0.2 mg/dL
  TC: 75.4 mg/dL
  TG: 74 mg/dL
  TP: 5.5 g/dL
  gamma-GTP: 1.4 IU/L
